Data as given in ChEMBL document CHEMBL1159019, “A strategy for identifying novel, mechanistically unique inhibitors of topoisomerase I” (J Nat Prod, 1992).

Columns and labels:
DNA topoisomerase 1 [1] = biological target: T1, DNA topoisomerase 1 (Homo sapiens, UniProt P11387); assay: Inhibition of human COLO201 cellular topoisomerase-1 mediated plasmid DNA cleavage by electrophoresis in presence of 14 units of enzyme
T1 sequence (P11387 whole entry): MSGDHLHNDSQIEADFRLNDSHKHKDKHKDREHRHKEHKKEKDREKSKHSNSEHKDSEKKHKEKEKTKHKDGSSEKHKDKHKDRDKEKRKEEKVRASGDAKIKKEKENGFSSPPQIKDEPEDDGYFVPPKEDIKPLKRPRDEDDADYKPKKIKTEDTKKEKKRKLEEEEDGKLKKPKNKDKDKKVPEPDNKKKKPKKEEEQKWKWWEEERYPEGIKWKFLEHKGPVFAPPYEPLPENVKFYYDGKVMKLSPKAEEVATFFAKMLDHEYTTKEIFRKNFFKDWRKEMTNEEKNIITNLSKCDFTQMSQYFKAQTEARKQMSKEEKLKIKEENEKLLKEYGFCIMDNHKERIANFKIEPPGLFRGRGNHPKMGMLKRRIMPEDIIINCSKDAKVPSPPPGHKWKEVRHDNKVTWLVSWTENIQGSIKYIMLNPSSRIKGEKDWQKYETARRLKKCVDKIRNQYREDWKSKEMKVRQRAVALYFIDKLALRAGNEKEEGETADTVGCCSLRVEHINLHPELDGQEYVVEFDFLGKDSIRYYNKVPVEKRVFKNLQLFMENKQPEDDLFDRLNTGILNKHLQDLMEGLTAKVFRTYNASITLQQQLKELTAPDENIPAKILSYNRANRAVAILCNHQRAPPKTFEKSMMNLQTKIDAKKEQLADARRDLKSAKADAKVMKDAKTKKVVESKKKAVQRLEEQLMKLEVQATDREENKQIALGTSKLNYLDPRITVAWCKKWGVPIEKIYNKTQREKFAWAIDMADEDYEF

DNA topoisomerase 1 [2] = biological target: T1, DNA topoisomerase 1; assay: Inhibition of human COLO201 cellular topoisomerase-1 mediated plasmid DNA cleavage by electrophoresis in presence of 70 units of enzyme

Row | SMILES | IC50 (DNA topoisomerase 1 [1]) | IC50 (DNA topoisomerase 1 [2])
1 | O=C(O)C[C@@H]1C(=O)O[C@H]2[C@@H]3OC(=O)c4cc(O)c(O)c(O)c4-c4c(cc(O)c(O)c4O)C(=O)OC[C@H]2O[C@@H](OC(=O)c2cc(O)c(O)c(O)c2)[C@@H]3OC(=O)c2cc(O)c(O)c3c2[C@H]1[C@H](O)C(=O)O3 [CHEBULAGIC ACID] | 50 nM | 100 nM
2 | O=C(O[C@@H]1O[C@@H]2COC(=O)c3cc(O)c(O)c(O)c3-c3c(cc(O)c(O)c3O)C(=O)O[C@H]([C@H]1O)[C@@H]2O)c1cc(O)c(O)c(O)c1 [CORILAGIN] | – | 40000 nM
